Results: patent US20100029554A1, “Composition and Methods for Treatment of Congestive Heart Failure” (Amylin Pharmaceuticals, Inc., priority 2006, published 2010)

Tests used:
NH/Swiss mice = assay: Glucose lowering assay; assay type: in vivo, mouse; details: IP, 2 nmol/kg, change in blood glucose relative to vehicle
How it was run: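 Female NH/Swiss mice, food-restricted 2 h beforehand, received test sample IP at 1 or 2 nmol/kg or vehicle (10% DMSO saline). Tail blood glucose (glucose oxidase biosensor) was measured pre-dose and at 30-240 min, expressed as percent change versus vehicle; ANOVA with Dunnett's post test.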

[1] = tested on: GLP/GIP/CT cyclase, RIN-m5F cells; assay: GLP/GIP/CT Cyclase (RIN) assay; assay type: cell-based, rat; details: cAMP, values without **
Description: GLP/GIP/CT Cyclase (RIN) Assay
(§1) Five μl of serially diluted peptides are transferred to the 384-well assay plate. Rat pancreas insulinoma cells (RIN-m5F) are detached from a tissue culture flask with Versene and washed once in buffer. Then RIN-m5F cells are resusupended in buffer at 2.5×10^6 cells/ml. Then 10 μl cells (2.5×10^4 cells) are added to all wells of the assay plate and cells are stimulated at room temperature in the dark for 30 minutes. The reaction is terminated with 10 μl of lysis buffer and incubated at room temperature for 4 hrs in the dark. cAMP content is measured using Perkin Elmer AlphaScreen™ cAMP assay kit and results are read on a Perkin Elmer Fusion fluorometer. The assay is completed in 384-well plates at 25 microliter volumes.

[2] = tested on: GLP-1 cyclase, rat thyroid carcinoma cells (6-23); assay: GLP-1 Cyclase (6-23) assay; assay type: cell-based; details: cAMP, 6-23 cells; values marked **
Description: as §1, with “thyroid carcinoma” for “pancreas insulinoma”, “(6-23)” for “(RIN-m5F)”, “6-23” for “RIN-m5F”, “3.0×10^6” for “2.5×10^6”, “(3.0×10^4” for “(2.5×10^4”, “μl” for “microliter”

Plasma stability = assay type: in vitro ADME; details: 20 μg/mL in plasma, 37° C., 0-5 hours
How it was run: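 Compound spiked into plasma at 20 μg/mL and incubated at 37° C for 0–5 h in triplicate. Each time point quenched with MeOH (1 part sample to 4 parts MeOH) and centrifuged. Remaining compound measured by LC-MS.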

CC[C@H](C)[C@H](NC(=O)[C@H](Cc1ccccc1)NC(=O)[C@H](CC(C)C)NC(=O)[C@H](CCCNC(=N)N)NC(=O)[C@@H](NC(=O)[C@H](C)NC(=O)[C@H](CCC(=O)O)NC(=O)[C@H](CCC(=O)O)NC(=O)[C@H](CCC(=O)O)NC(=O)[C@H](CC(C)C)NC(=O)[C@H](Cc1ccc(O)cc1)NC(=O)[C@H](CCC(=O)O)NC(=O)[C@@H](NC(=O)[C@@H](NC(=O)[C@H](CC(=O)O)NC(=O)[C@H](CC(N)=O)NC(=O)[C@@H](NC(=O)[C@H](Cc1ccc(O)cc1)NC(=O)[C@@H](NC(=O)CNC(=O)[C@H](CCC(=O)O)NC(=O)CNC(=O)[C@@H](N)Cc1c[nH]cn1)[C@@H](C)O)[C@@H](C)O)C(C)C)[C@@H](C)O)C(C)C)C(=O)N[C@@H](CCC(=O)O)C(=O)N[C@@H](Cc1c[nH]c2ccccc12)C(=O)N[C@@H](CC(C)C)C(=O)N[C@@H](CCCCN)C(=O)N[C@@H](CCC(N)=O)C(=O)NCC(=O)NCC(=O)N1CCC[C@H]1C(=O)N[C@@H](CO)C(=O)N[C@@H](CO)C(=O)NCC(=O)N[C@@H](C)C(=O)N1CCC[C@H]1C(=O)N1CCC[C@H]1C(=O)N1CCC[C@H]1C(=O)N[C@@H](CO)C(N)=O [Cmpd 5130]
GLU LOWERING AUC240 @2 nmol/kg (NH/Swiss mice): −22% | EC50 [1]: 0.89 nM | EC50 [2]: 0.0544 nM | plasma stability as compared to native GLP-1 (Plasma stability): increased plasma stability
